Test results from US9643953B2, “Substituted benzylpyrazoles” (Bayer Intellectual Property GmbH, priority 2011, dated 2017).
Like-named read-outs stand apart in the source and are kept apart here.

Key:
[1] = molecular target: T1, catalytic domain of human Bub1 (amino acids 704-1085) (Homo sapiens, UniProt O43683); assay: Bub1 kinase assay (TR-FRET); assay type: biochemical; conditions: ATP 10 μM, peptide substrate 1 μM, 60 min at 22° C.
T1 construct: catalytic domain of human Bub1 (amino acids 704-1085); His6 (N); made in house; host or cells: Hi5 insect cells
Procedure: To this end, 100-fold concentrated compound solutions (in DMSO) were previously prepared by serial dilution (1:3.4) of 2 mM stocks in a clear low volume 384-well source microtiter plate (Greiner Bio-One, Frickenhausen, Germany), from which 50 nl of compounds were transferred into a black low volume test microtiter plate from the same supplier. […] The resulting mixture (5 μl final volume) was incubated at 22° C. during 60 min., and the reaction was stopped by the addition of 5 μl of an aqueous EDTA-solution (50 mM EDTA, in 100 mM HEPES pH 7.5 and 0.2% (w/v) bovine serum albumin) which also contained the TR-FRET detection reagents (0.2 μM streptavidin-XL665 [Cisbio Bioassays, Codolet, France] and 1 nM anti-phosho-Serine antibody [Merck Millipore, cat. #35-001] and 0.4 nM LANCE EU-W1024 labeled anti-mouse IgG antibody [Perkin-Elmer, product no. AD0077, alternatively a Terbium-cryptate-labeled anti-mouse IgG antibody from Cisbio Bioassays can be used]). The stopped reaction mixture was further incubated 1 h at 22° C. in order to allow the formation of complexes between peptides and detection reagents. Subsequently, the amount of product was evaluated by measurement of the resonance energy transfer from the Eu-chelate-antibody complex recognizing the Phosphoserine residue to the streptavidin-XL665 bound to the biotin moiety of the peptide. […] IC50 values were calculated by fitting the normalized inhibition data to a 4-parameter logistic equation (Minimum, Maximum, IC50, Hill; Y=Max+(Min−Max)/(1+(X/IC50)Hill)).

[2] = tested on: HeLa cell line; assay: Proliferation assay (HeLa cell line); conditions: Homo sapiens, HeLa, 96 h;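 note: crystal violet staining of cell number, absorbance read at 595 nm, compounds tested at 0.001–10 µM, zero-point plate taken as 0% and untreated cells as 100%, four-parameter fit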
Procedure: Cultivated tumor cells (cells were ordered from ATCC, except HeLa-MaTu and HeLa-MaTu-ADR, which were ordered from EPO-GmbH, Berlin) were plated at a density of 1000 to 5000 cells/well, depending on the growth rate of the respective cell line, in a 96-well multititer plate in 200 μL of their respective growth medium supplemented 10% fetal calf serum. After 24 hours, the cells of one plate (zero-point plate) were stained with crystal violet (see below), while the medium of the other plates was replaced by fresh culture medium (200 μl), to which the test substances were added in various concentrations (0 μM, as well as in the range of 0.001-10 μM; the final concentration of the solvent dimethyl sulfoxide was 0.5%). The cells were incubated for 4 days in the presence of test substances. Cell proliferation was determined by staining the cells with crystal violet: the cells were fixed by adding 20 μl/measuring point of an 11% glutaric aldehyde solution for 15 minutes at room temperature. After three washing cycles of the fixed cells with water, the plates were dried at room temperature. The cells were stained by adding 100 μl/measuring point of a 0.1% crystal violet solution (pH 3.0). After three washing cycles of the stained cells with water, the plates were dried at room temperature. The dye was dissolved by adding 100 μl/measuring point of a 10% acetic acid solution. Absorption was determined by photometry at a wavelength of 595 nm. The change of cell number, in percent, was calculated by normalization of the measured values to the absorption values of the zero-point plate (=0%) and the absorption of the untreated (0 μm) cells (=100%). The IC50 values were determined by means of a 4 parameter fit.

[3] = TR-FRET, read-out: Biological Assay 1: Bub1 kinase assay median IC50
[4] = read-out: Biological Assay 2: Proliferation assay (HeLa cell line) median IC50
[5] = read-out: Biological Assay 2: Proliferation assay (HeLa cell line) median IC50, HeLa cells, 4 days incubation, crystal violet staining
[6] = Biological Assay 1: Bub1 kinase assay median IC50, TR-FRET

T1 sequence (O43683 704-1085): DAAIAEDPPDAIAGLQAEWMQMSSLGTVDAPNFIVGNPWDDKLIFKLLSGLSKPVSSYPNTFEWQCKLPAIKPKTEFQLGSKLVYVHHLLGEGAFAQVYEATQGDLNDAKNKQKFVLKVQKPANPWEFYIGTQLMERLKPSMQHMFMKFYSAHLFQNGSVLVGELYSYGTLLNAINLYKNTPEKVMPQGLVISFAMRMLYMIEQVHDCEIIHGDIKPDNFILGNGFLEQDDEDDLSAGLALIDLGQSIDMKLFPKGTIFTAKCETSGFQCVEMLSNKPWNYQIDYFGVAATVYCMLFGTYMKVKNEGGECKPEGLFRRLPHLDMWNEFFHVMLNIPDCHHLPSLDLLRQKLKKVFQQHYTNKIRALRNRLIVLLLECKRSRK

Row | Structure (SMILES) | IC50 [1, 3] | IC50 [2, 4] | IC50 [2, 5] | IC50 [1, 6]
1 | COc1ccc(Cn2nc(-c3ncc(OC)c(Nc4ccncc4)n3)cc2C2CC2)cc1 [Example 2-1-8, 2-[5-cyclopropyl-1-(4-methoxybenzyl)-1H-pyrazol-3-yl]-5-methoxy-N-(pyridin-4-yl)pyrimidin-4-amine] | 73.8 nM | > 10000 nM |  | 
2 | COc1cnc(-c2nn(Cc3c(Cl)cccc3Cl)c(C3CC3)c2C)nc1Nc1ccncc1 [Example 2-1-9, 2-[5-cyclopropyl-1-(2,6-dichlorobenzyl)-4-methyl-1H-pyrazol-3-yl]-5-methoxy-N-(pyridin-4-yl)pyrimidin-4-amine] | 5.76 nM | > 10000 nM |  | 
3 | COc1cnc(-c2nn(Cc3ccccc3F)c(C3CC3)c2C)nc1Nc1ccncc1 [Example 2-1-10, 2-[5-cyclopropyl-1-(2-fluorobenzyl)-4-methyl-1H-pyrazol-3-yl]-5-methoxy-N-(pyridin-4-yl)pyrimidin-4-amine] | 36.5 nM | 3490 nM |  | 
4 | COc1cnc(-c2nn(Cc3c(Cl)cccc3Cl)c(OC)c2C)nc1Nc1ccncc1 [Example 2-1-11, 2-[1-(2,6-dichlorobenzyl)-5-methoxy-4-methyl-1H-pyrazol-3-yl]-5-methoxy-N-(pyridin-4-yl)pyrimidin-4-amine] | 7.86 nM | 2740 nM |  | 
5 | CCOc1cc(F)c(Cn2nc(-c3ncc(O)c(Nc4ccncc4)n3)c(C)c2C2CC2)c(Sc2ccccc2)c1 [Example 2-2-2, 2-{5-cyclopropyl-1-[4-ethoxy-2-fluoro-6-(phenylsulfanyl)benzyl]-4-methyl-1H-pyrazol-3-yl}-4-(pyridin-4-ylamino)pyrimidin-5-ol] | 53.9 nM |  | 4970 nM | 
6 | CCOc1cc(F)c(Cn2nc(-c3ncc(OCC4(CO)COC4)c(Nc4ccncc4)n3)c(C)c2C2CC2)c(F)c1 [Example 2-3-2, {3-[({2-[5-cyclopropyl-1-(4-ethoxy-2,6-difluorobenzyl)-4-methyl-1H-pyrazol-3-yl]-4-(pyridin-4-ylamino)pyrimidin-5-yl}oxy)methyl]oxetan-3-yl}methanol] |  | 6000 nM |  | 5.23 nM
7 | CCOc1cc(F)c(Cn2nc(-c3ncc(OCCO)c(Nc4ccncc4)n3)c(C)c2C2CC2)c(F)c1 [Example 2-3-3, 2-({2-[5-cyclopropyl-1-(4-ethoxy-2,6-difluorobenzyl)-4-methyl-1H-pyrazol-3-yl]-4-(pyridin-4-ylamino)pyrimidin-5-yl}oxy)ethanol] |  | 3590 nM |  | 7.86 nM
8 | CCOc1cc(F)c(Cn2nc(-c3ncc(OCCSC)c(Nc4ccncc4)n3)c(C)c2C2CC2)c(F)c1 [Example 2-3-4, 2-[5-cyclopropyl-1-(4-ethoxy-2,6-difluorobenzyl)-4-methyl-1H-pyrazol-3-yl]-5-[2-(methylsulfanyl)ethoxy]-N-(pyridin-4-yl)pyrimidin-4-amine] |  | 5570 nM |  | 10.8 nM
9 | CCOc1cc(F)c(Cn2nc(-c3ncc(OCS(N)(=O)=O)c(Nc4ccncc4)n3)c(C)c2C2CC2)c(F)c1 [Example 2-3-5, 1-({2-[5-cyclopropyl-1-(4-ethoxy-2,6-difluorobenzyl)-4-methyl-1H-pyrazol-3-yl]-4-(pyridin-4-ylamino)pyrimidin-5-yl}oxy)methanesulfonamide] |  | 3200 nM |  | 5.55 nM
10 | CCOc1cc(F)c(Cn2nc(-c3ncc(OCCCSC)c(Nc4ccncc4)n3)c(C)c2C2CC2)c(F)c1 [Example 2-3-8, 2-[5-cyclopropyl-1-(4-ethoxy-2,6-difluorobenzyl)-4-methyl-1H-pyrazol-3-yl]-5-[3-(methylsulfanyl)propoxy]-N-(pyridin-4-yl)pyrimidin-4-amine] |  | 2960 nM |  | 13.7 nM
11 | CCOc1cc(F)c(Cn2nc(-c3ncc(OCC4(CO)COC4)c(Nc4ccncc4)n3)c(C)c2C2CC2)c(Sc2ccccc2)c1 [Example 2-3-9, [3-({[2-{5-cyclopropyl-1-[4-ethoxy-2-fluoro-6-(phenylsulfanyl)benzyl]-4-methyl-1H-pyrazol-3-yl}-4-(pyridin-4-ylamino)pyrimidin-5-yl]oxy}methyl)oxetan-3-yl]-methanol] | 249 nM |  | 6460 nM | 
